Assay results as given in US4107424A, “1-N-[(S)-α-hydroxy-ω-aminoacyl] derivatives of 3',4'-dideoxykanamycin B and 3'-deoxykanamycin B antibiotics” (Zaidan Hojin Biseibutsu Kagaku Kenkyu Kai, priority 1972, dated 1978).
≈ marks a conversion by molar mass, not a printed value.

Tests used:
[1] = tested on: Bacillus subtilis NRRL B-558; assay: Minimal inhibitory concentration, agar dilution streak method; assay type: cell-based; conditions: NRRLB558, nutrient agar, 37° C, 18 hours
Procedure: (§1) [α]D^22 + 38°, (c 0.85, water).
(§2) *Agar Agar dilution streak method (nutrient agar, 37° C, 18 hours)
(§3) *Agar dilution streak method (nutrient agar, 37° C, 18 hours).

[2] = tested on: Escherichia coli J 5 R 11-2; assay: as above; assay type: cell-based; conditions: J5R112, 18 h, read-out: Minimal inhibitory concentration
Procedure: as §1, §2, §3

[3] = tested on: Escherichia coli K-12 C 600 R 135; assay: as above; assay type: cell-based; conditions: 18 h, read-out: Minimal inhibitory concentration
Procedure: as §1, §2, §3

[4] = tested on: Escherichia coli K-12 R-5; assay: as above; assay type: cell-based; conditions: K12R5, nutrient agar, 37° C, 18 hours
Procedure: as §1, §2, §3

Escherichia coli NIHJ = assay: as above; assay type: cell-based; conditions: nutrient agar, 37° C, 18 hours
Procedure: as §1, §2, §3

[5] = tested on: Klebsiella pneumoniae PCI 602; assay: as above; assay type: cell-based; conditions: PCI602, nutrient agar, 37° C, 18 hours
Procedure: as §1, §2, §3

Proteus rettgeri GN 311 = assay: as above; assay type: cell-based; conditions: Providencia rettgeri, GN311; nutrient agar, 37° C, 18 hours
Procedure: as §1, §2, §3

Proteus rettgeri GN 466 = assay: as above; assay type: cell-based; conditions: Providencia rettgeri, GN466; nutrient agar, 37° C, 18 hours
Procedure: as §1, §2, §3

[6] = tested on: Pseudomonas aeruginosa 99; assay: as above; assay type: cell-based; conditions: nutrient agar, 37° C, 18 hours, read-out: Minimal inhibitory concentration
Procedure: as §1, §2, §3

Salmonella typhosa T-63 = assay: as above; assay type: cell-based; conditions: Salmonella enterica, nutrient agar, 37° C, 18 hours
Procedure: as §1, §2, §3

Sarcina lutea PCI 1001 = assay: as above; assay type: cell-based; conditions: Micrococcus luteus, PCI1001; nutrient agar, 37° C, 18 hours; read-out: Minimal inhibitory concentration
Procedure: as §1, §2, §3

[7] = tested on: Escherichia coli K-12 JR 66/W 677; assay: as above; assay type: cell-based; conditions: Escherichia coli, 18 h, read-out: Minimal inhibitory concentration
Procedure: as §2, §3

[8] = tested on: Escherichia coli K-12 LA 290 R 55; assay: as above; assay type: cell-based; conditions: 18 h, read-out: Minimal inhibitory concentration
Procedure: as §2, §3

[9] = tested on: Escherichia coli K-12 LA 290 R 56; assay: as above; assay type: cell-based; conditions: 18 h, read-out: Minimal inhibitory concentration
Procedure: as §2, §3

[10] = tested on: Escherichia coli K-12 LA 290 R 64; assay: as above; assay type: cell-based; conditions: nutrient agar, 37° C, 18 hours, read-out: Minimal inhibitory concentration
Procedure: as §2, §3

[11] = tested on: Escherichia coli K-12 ML 1410 R 81; assay: as above; assay type: cell-based; conditions: 18 h, read-out: Minimal inhibitory concentration
Procedure: as §2, §3

[12] = tested on: Escherichia coli K-12 ML 1410; assay: as above; assay type: cell-based; conditions: K12ML1410, nutrient agar, 37° C, 18 hours, read-out: Minimal inhibitory concentration
Procedure: as §2, §3

[13] = tested on: Escherichia coli K-12 ML 1629; assay: as above; assay type: cell-based; conditions: K12ML1629, nutrient agar, 37° C, 18 hours, read-out: Minimal inhibitory concentration
Procedure: as §2, §3

[14] = tested on: Escherichia coli K-12 ML 1630; assay: as above; assay type: cell-based; conditions: K12ML1630, nutrient agar, 37° C, 18 hours, read-out: Minimal inhibitory concentration
Procedure: as §2, §3

[15] = tested on: Escherichia coli K-12 W 677; assay: as above; assay type: cell-based; conditions: K12W677, nutrient agar, 37° C, 18 hours, read-out: Minimal inhibitory concentration
Procedure: as §2, §3

Escherichia coli K-12 = assay: as above; assay type: cell-based; conditions: K12, nutrient agar, 37° C, 18 hours, read-out: Minimal inhibitory concentration
Procedure: as §2, §3

[16] = tested on: Klebsiella pneumoniae type 22 #3038; assay: as above; assay type: cell-based; conditions: Klebsiella pneumoniae; nutrient agar, 37° C, 18 hours
Procedure: as §2, §3

[17] = tested on: Pseudomonas aeruginosa A 3; assay: as above; assay type: cell-based; conditions: A3, nutrient agar, 37° C, 18 hours, read-out: Minimal inhibitory concentration
Procedure: as §2, §3

[18] = tested on: Pseudomonas aeruginosa GN 315; assay: as above; assay type: cell-based; conditions: GN315, nutrient agar, 37° C, 18 hours, read-out: Minimal inhibitory concentration
Procedure: as §2, §3

[19] = tested on: Pseudomonas aeruginosa No.12; assay: as above; assay type: cell-based; conditions: nutrient agar, 37° C, 18 hours, read-out: Minimal inhibitory concentration
Procedure: as §2, §3

[20] = tested on: Pseudomonas aeruginosa TI-13; assay: as above; assay type: cell-based; conditions: TI13, nutrient agar, 37° C, 18 hours, read-out: Minimal inhibitory concentration
Procedure: as §2, §3

[21] = tested on: Staphylococcus aureus FDA 209P; assay: as above; assay type: cell-based; conditions: FDA209P, nutrient agar, 37° C, 18 hours, read-out: Minimal inhibitory concentration
Procedure: as §2, §3

[22] = tested on: Mycobacterium smegmatis ATCC 607; assay: as above; assay type: cell-based; conditions: Mycolicibacterium smegmatis, ATCC607; nutrient agar, 37° C, 48 hours; read-out: Minimal inhibitory concentration
phosphotransferase = conditions: phosphorylation of hydroxyl group; cited from earlier work

Q: With `NC[C@@H]1CC[C@@H](N)[C@@H](O[C@H]2[C@H](O[C@@H]3O[C@H](CO)[C@@H](O)[C@H]3O)[C@@H](O)[C@H](N)C[C@@H]2N)O1` [3',4'-dideoxyribostamycin] as the compound, how does the MIC [1] read?
A: 1.56 µg/mL (≈ 3.69 µM)

Q: What about the MIC [2] of the same compound?
A: 100 µg/mL (≈ 237 µM)

Q: What about the MIC [3] of the same compound?
A: 3.12 µg/mL (≈ 7.38 µM)

Q: What about the MIC [4] of the same compound?
A: 100 µg/mL (≈ 237 µM)

Q: What about the MIC (Escherichia coli NIHJ) of the same compound?
A: 6.25 µg/mL (≈ 14.8 µM)

Q: What about the MIC [5] of the same compound?
A: 3.12 µg/mL (≈ 7.38 µM)

Q: What about the MIC (Proteus rettgeri GN 311) of the same compound?
A: 6.25 µg/mL (≈ 14.8 µM)

Q: And the MIC (Proteus rettgeri GN 466)?
A: 6.25 µg/mL (≈ 14.8 µM)

Q: And the MIC [6]?
A: 50 µg/mL (≈ 118 µM)

Q: And the MIC (Salmonella typhosa T-63)?
A: 1.56 µg/mL (≈ 3.69 µM)

Q: And the MIC (Sarcina lutea PCI 1001)?
A: > 100 µg/mL

Q: And the MIC [7]?
A: 6.25 µg/mL (≈ 14.8 µM)

Q: And the MIC [8]?
A: 3.12 µg/mL (≈ 7.38 µM)

Q: And the MIC [9]?
A: 1.56 µg/mL (≈ 3.69 µM)

Q: What about the MIC [10] of the same compound?
A: 3.12 µg/mL (≈ 7.38 µM)

Q: And the MIC [11]?
A: > 100 µg/mL

Q: And the MIC [12]?
A: 6.25 µg/mL (≈ 14.8 µM)

Q: What about the MIC [13] of the same compound?
A: > 100 µg/mL

Q: And the MIC [14]?
A: > 100 µg/mL

Q: And the MIC [15]?
A: 3.12 µg/mL (≈ 7.38 µM)

Q: What about the MIC (Escherichia coli K-12) of the same compound?
A: 3.12 µg/mL (≈ 7.38 µM)

Q: What about the MIC [16] of the same compound?
A: 6.25 µg/mL (≈ 14.8 µM)

Q: And the MIC [17]?
A: 6.25 µg/mL (≈ 14.8 µM)

Q: And the MIC [18]?
A: > 100 µg/mL

Q: What about the MIC [19] of the same compound?
A: 12.5 µg/mL (≈ 29.6 µM)

Q: And the MIC [20]?
A: 25 µg/mL (≈ 59.2 µM)

Q: What about the MIC [21] of the same compound?
A: 3.12 µg/mL (≈ 7.38 µM)

Q: What about the MIC [22] of the same compound?
A: 3.12 µg/mL (≈ 7.38 µM)

Q: And the inactivation by phosphotransferase (phosphotransferase)?
A: inactivated by phosphorylating 5"-hydroxyl group
